Patent US10810329B2, “In silico design of peptides equilibrated in a lipid bilayer with partition free energies indicating probability of antimicrobial activity” (priority 2015, dated 2020)
Converted amounts (≈) assume the structure as drawn. Peptide text beside a SMILES is read from it.

How the values were obtained:
[1] = system: E. coli ATCC 25922; format: cell-based, Escherichia coli; settings: for Antimicrobial activity (MIC) Experimental values: ATCC 25922; for MIC in MH medium: ATCC 25922, 16 h
Experimental: (§1) MIC: Minimal Inhibitory Concentration of AMPs in MH Medium Against E. coli ATCC 25922 Minimal inhibitory concentration (MIC) represents for the lowest concentration of peptide at which the AMP can still kill 90% of the bacteria. All MIC tests for WLK peptide series SEQ ID NO:1-13 were measured against Escherichia coli strain (ATCC 25922) in triplicate. Peptide concentration was determined by UV spectrophotometer (Ultrospec 1100 pro from Amersham Biosciences) at 280 nm with proper extinction coefficient. (Gill S. C. & Von Hippel P. H., Analytical biochemistry 1989, 182(2), 319-326). All of the samples were prepared from a stock solution containing peptides of concentrations 5, 2.5, 1.25, 0.625, 0.313, 0.156 and 0.078 mg/ml. Bacteria culture in the middle of logarithmic growth at a concentration of 5×10^5 colony-formation unit (CFU) and protein solution at the aforementioned concentrations were uniformly mixed in a 96-well culture plate (each well contains 1 microliter protein solution and 99 microliter of bacteria culture). After growing the culture at 37° C. for 16 hours, how bacterial growth was inhibited was measured by Thermo Max (Molecular Devices) at the wavelength of 600 nm. The MIC values were determined by triplicates of the above experiments.

[2] = system: Escherichia coli strain (ATCC 25922); format: cell-based
Experimental: as §1, with “Minimal” for “MIC: Minimal Inhibitory Concentration of AMPs in MH Medium Against E. coli ATCC 25922 Minimal”

| SMILES | Antimicrobial activity (MIC) Experimental values [1] [µg/mL] | MIC in MH medium [1] [µg/mL] | MIC in LYM medium, NaCl 50 [2] [µg/mL] | MIC in LYM medium, NaCl 100 [2] [µg/mL] | MIC in LYM medium, NaCl 200 [2] [µg/mL] | MIC in LYM medium, NaCl 300 [2] [µg/mL] | MIC in LYM medium, control [2] [µg/mL] |
| --- | --- | --- | --- | --- | --- | --- | --- |
| CC(C)C[C@H](NC(=O)[C@H](Cc1c[nH]c2ccccc12)NC(=O)[C@H](CCCCN)NC(=O)[C@H](CC(C)C)NC(=O)[C@H](Cc1c[nH]c2ccccc12)NC(=O)[C@H](CCCCN)NC(=O)[C@H](CCCCN)NC(=O)[C@H](CCCCN)NC(=O)[C@H](CCCCN)NC(=O)[C@H](CCCCN)NC(=O)[C@@H](N)CC(C)C)C(=O)N[C@@H](CCCCN)C(=O)N[C@@H](Cc1c[nH]c2ccccc12)C(=O)O [SEQ ID NO. 10, LKKKKKWLKWLKW] (H-LKKKKKWLKWLKW-OH; N-terminus and C-terminus assumed) | 6.25 | 6.25 (≈ 3.45 µM) | 3.13 (≈ 1.73 µM) | 3.13 (≈ 1.73 µM) | 6.25 (≈ 3.45 µM) | 25 (≈ 13.8 µM) | 3.13 (≈ 1.73 µM) |
| CC(C)C[C@H](NC(=O)[C@H](Cc1c[nH]c2ccccc12)NC(=O)[C@H](CCCCN)NC(=O)[C@H](CC(C)C)NC(=O)[C@H](Cc1c[nH]c2ccccc12)NC(=O)[C@H](CCCCN)NC(=O)[C@H](CC(C)C)NC(=O)[C@H](Cc1c[nH]c2ccccc12)NC(=O)[C@H](CCCCN)NC(=O)[C@H](CCCCN)NC(=O)[C@H](CCCCN)NC(=O)[C@H](CCCCN)NC(=O)[C@@H](N)CCCCN)C(=O)O [SEQ ID NO. 11, KKKKKWLKWLKWL] (H-KKKKKWLKWLKWL-OH; N-terminus and C-terminus assumed) | 1.56 | 1.56 (≈ 0.86 µM) | 1.56 (≈ 0.86 µM) | 1.56 (≈ 0.86 µM) | 1.56 (≈ 0.86 µM) | 3.13 (≈ 1.73 µM) | 1.56 (≈ 0.86 µM) |
| CC(C)C[C@H](NC(=O)[C@H](Cc1c[nH]c2ccccc12)NC(=O)[C@H](CCCCN)NC(=O)[C@H](CC(C)C)NC(=O)[C@H](Cc1c[nH]c2ccccc12)NC(=O)[C@H](CCCCN)NC(=O)[C@H](CC(C)C)NC(=O)[C@H](Cc1c[nH]c2ccccc12)NC(=O)[C@H](CCCCN)NC(=O)[C@H](CCCCN)NC(=O)[C@@H](N)CCCCN)C(=O)N[C@@H](CCCCN)C(=O)N[C@@H](CCCCN)C(=O)O [SEQ ID NO. 13, KKKWLKWLKWLKK] (H-KKKWLKWLKWLKK-OH; N-terminus and C-terminus assumed) | 1.56 | 1.56 (≈ 0.86 µM) | 3.13 (≈ 1.73 µM) | 1.56 (≈ 0.86 µM) | 3.13 (≈ 1.73 µM) | 12.5 (≈ 6.89 µM) | 1.56 (≈ 0.86 µM) |
